Measurements from patent US20240335442A1 (Eurofarma Laboratórios S.A., priority 2021, published 2024).

How the values were obtained:
[1] = molecular target: human sodium channel Nav 1.7 (Homo sapiens (Human), UniProt Q15858); experiment: Automated whole-cell voltage-clamp (ScreenPatch 384P), Nav 1.7 sodium current, Protocol 2; format: cell-based; conditions: read-out: Nav1.7 IC50
Outline: (§1)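 Peak TP1A sodium current block, scaled between DMSO vehicle and positive control, was fitted with a Hill equation to give IC50 at eight compound concentrations (≥5 min, room temperature) in stable CHO lines. Protocol 2 (0.05 Hz) used an 8 s −40 mV inactivating prepulse from −100 mV; Protocol 1 (0.1 Hz) held at −90 mV; test steps 10 mV for Nav1.8, 0 mV for Nav1.7.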

[2] = molecular target: human sodium channel Nav 1.8 (Homo sapiens (Human), UniProt Q9Y5Y9); experiment: Automated whole-cell voltage-clamp (ScreenPatch 384P), Nav 1.8 sodium current, Protocol 2; format: cell-based; conditions: read-out: Nav1.8 IC50
Outline: as §1

Chain of human sodium channel Nav 1.8 (Q9Y5Y9 whole entry): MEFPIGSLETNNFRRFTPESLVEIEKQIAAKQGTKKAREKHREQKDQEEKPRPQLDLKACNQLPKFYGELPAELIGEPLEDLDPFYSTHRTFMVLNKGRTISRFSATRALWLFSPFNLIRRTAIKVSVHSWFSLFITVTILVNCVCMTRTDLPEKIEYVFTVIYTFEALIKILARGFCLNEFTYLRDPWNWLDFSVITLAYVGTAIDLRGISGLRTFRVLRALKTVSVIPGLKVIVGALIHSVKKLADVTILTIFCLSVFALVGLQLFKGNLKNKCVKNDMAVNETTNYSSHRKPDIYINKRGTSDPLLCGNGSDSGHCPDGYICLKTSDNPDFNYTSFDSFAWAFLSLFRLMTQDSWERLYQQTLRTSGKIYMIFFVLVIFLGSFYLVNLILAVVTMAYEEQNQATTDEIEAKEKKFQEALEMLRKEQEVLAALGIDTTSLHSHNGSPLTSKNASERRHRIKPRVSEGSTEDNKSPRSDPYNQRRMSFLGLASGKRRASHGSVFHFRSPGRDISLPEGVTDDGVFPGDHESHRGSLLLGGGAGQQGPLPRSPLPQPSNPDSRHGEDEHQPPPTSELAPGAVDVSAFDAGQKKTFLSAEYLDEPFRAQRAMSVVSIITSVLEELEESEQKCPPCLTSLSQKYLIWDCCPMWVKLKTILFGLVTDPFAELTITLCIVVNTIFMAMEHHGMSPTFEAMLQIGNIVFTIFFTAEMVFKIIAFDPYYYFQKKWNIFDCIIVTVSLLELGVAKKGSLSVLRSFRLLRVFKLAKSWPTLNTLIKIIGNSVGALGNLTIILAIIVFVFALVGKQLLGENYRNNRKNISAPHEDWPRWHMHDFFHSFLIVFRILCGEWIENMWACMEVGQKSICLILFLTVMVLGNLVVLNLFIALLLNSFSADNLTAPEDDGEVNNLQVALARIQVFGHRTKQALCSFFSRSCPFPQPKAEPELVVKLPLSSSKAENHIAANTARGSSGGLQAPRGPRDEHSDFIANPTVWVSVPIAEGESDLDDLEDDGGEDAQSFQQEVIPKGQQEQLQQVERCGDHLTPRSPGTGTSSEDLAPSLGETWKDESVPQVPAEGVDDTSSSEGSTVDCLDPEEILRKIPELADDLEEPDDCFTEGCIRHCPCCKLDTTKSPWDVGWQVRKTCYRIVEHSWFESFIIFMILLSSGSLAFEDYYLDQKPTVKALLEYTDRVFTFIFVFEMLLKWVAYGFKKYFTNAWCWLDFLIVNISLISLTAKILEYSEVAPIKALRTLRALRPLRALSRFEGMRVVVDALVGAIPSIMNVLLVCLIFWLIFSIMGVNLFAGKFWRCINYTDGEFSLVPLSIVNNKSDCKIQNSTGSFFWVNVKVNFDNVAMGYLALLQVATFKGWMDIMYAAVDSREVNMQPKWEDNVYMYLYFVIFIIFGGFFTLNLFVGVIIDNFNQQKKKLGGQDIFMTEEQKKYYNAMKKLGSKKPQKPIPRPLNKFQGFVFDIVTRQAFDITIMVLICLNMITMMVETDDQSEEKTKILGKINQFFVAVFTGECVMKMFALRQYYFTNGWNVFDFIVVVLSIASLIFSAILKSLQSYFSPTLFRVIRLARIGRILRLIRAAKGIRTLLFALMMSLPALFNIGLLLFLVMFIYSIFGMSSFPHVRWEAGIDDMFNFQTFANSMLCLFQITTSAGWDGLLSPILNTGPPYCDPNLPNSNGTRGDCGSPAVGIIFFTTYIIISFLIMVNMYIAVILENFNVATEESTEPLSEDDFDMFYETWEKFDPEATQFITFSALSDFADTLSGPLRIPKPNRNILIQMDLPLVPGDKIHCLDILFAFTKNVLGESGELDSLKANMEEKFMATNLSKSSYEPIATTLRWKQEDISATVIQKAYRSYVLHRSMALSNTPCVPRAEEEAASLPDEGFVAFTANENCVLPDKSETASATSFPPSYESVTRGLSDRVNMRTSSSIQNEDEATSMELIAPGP
Chain of human sodium channel Nav 1.7 (Q15858 whole entry): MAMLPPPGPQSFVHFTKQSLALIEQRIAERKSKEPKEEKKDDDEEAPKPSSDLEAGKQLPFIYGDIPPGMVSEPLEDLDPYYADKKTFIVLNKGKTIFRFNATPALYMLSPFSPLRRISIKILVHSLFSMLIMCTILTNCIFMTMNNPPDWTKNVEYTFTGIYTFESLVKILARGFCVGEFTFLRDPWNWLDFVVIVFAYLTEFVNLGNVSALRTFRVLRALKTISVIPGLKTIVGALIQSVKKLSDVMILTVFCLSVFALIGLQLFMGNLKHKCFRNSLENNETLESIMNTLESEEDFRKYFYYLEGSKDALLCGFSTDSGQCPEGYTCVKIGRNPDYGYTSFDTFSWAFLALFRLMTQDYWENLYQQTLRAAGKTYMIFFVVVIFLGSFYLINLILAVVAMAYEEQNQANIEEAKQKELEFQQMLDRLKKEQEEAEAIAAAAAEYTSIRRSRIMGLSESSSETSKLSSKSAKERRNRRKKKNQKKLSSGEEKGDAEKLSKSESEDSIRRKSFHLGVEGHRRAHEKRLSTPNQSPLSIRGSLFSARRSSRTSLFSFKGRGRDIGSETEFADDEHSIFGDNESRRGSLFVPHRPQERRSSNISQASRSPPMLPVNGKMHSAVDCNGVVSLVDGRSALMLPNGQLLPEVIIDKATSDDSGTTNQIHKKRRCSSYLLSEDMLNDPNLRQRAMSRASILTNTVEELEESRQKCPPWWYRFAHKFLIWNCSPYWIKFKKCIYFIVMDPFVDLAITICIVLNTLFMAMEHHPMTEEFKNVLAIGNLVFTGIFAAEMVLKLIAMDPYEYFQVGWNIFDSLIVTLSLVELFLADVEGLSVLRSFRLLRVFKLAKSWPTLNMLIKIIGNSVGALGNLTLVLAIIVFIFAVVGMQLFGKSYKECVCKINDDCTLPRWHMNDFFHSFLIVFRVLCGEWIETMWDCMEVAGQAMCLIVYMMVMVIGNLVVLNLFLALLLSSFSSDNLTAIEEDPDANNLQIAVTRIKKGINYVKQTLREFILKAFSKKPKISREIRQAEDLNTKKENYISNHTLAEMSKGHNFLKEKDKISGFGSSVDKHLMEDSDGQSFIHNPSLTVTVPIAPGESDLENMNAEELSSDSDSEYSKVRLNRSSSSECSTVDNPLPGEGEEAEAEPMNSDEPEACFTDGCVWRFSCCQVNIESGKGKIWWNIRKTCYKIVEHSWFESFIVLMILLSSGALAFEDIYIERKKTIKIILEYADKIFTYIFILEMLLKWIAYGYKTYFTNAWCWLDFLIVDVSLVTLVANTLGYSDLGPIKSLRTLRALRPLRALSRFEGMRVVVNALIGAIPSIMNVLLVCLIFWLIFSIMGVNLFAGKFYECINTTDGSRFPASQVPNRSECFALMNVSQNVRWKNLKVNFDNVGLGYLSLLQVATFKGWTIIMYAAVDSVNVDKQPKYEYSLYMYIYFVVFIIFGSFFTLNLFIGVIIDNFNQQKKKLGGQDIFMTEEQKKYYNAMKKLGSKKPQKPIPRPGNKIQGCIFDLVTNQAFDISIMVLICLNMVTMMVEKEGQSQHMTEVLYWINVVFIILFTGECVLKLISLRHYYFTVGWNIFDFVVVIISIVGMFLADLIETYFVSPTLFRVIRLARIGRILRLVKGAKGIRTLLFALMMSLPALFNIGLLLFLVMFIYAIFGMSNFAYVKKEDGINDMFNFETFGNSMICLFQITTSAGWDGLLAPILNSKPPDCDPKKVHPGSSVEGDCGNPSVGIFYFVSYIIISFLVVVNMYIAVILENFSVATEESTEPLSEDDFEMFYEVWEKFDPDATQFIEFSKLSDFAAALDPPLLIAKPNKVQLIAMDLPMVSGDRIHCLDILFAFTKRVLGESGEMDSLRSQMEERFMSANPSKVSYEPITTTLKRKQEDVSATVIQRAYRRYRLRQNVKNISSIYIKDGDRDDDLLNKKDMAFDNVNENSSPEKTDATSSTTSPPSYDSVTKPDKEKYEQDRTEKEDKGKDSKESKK

IC50 [1] | IC50 [2] | SMILES
> 10 µM | > 1 µM | COc1cc(/C=N/NC(=O)c2cncc(Cl)n2)cc(OC)c1 [Compound 163, (E)-6-chloro-N′-(3,5-dimethoxybenzylidene)pyrazine-2-carbohydrazide]
> 10 µM | 0.777 µM | COc1ccc(-c2cncc(C(=O)N/N=C/c3cc(C(F)(F)F)cc(C(F)(F)F)c3)n2)cc1 [Compound 73, (E)-N′-(3,5-bis(trifluoromethyl)benzylidene)-6-(4-methoxyphenyl)pyrazine-2-carbohydrazide]
0.0631 µM | 0.0513 µM | COc1cc(/C=N/NC(=O)c2cncc(-c3ccc(OC(C)C)cc3)n2)cc(OC)c1 [Compound 29, (E)-N′-(3,5-dimethoxybenzylidene)-6-(4-isopropoxyphenyl)pyrazine-2-carbohydrazide]
0.268 µM | 0.0745 µM | CCOc1ccc(-c2cncc(C(=O)N/N=C/c3cccc(OC)c3F)n2)cc1 [Compound 21, (E)-6-(4-ethoxyphenyl)-N′-(2-fluoro-3-methoxybenzylidene)pyrazine-2-carbohydrazide]
5.16 µM | 1 µM | CCOc1ccc(-c2cncc(C(=O)N/N=C/c3cc(OC)c(F)c(OC)c3)n2)c(OC)c1 [Compound 107, (E)-6-(4-ethoxy-2-methoxyphenyl)-N′-(4-fluoro-3,5-dimethoxybenzylidene)pyrazine-2-carbohydrazide]
0.308 µM | 0.156 µM | CCOc1ccc(-c2cncc(C(=O)N/N=C/c3cc(OC)cc(OC)c3OCC)n2)cc1 [Compound 14, (E)-N′-(2-ethoxy-3,5-dimethoxybenzylidene)-6-(4-ethoxyphenyl)pyrazine-2-carbohydrazide]
> 10 µM | > 1 µM | CCOc1ccc(-c2cncc(C(=O)N/N=C/c3ccc(C(=O)NS(C)(=O)=O)cc3)n2)cc1 [Compound 188, (E)-4-((2-(6-(4-ethoxyphenyl)pyrazine-2-carbonyl)hydrazinalidene)methyl)-N-(methylsulfonyl)benzamide]
1.38 µM | 0.131 µM | COc1ccc(-c2cncc(C(=O)N/N=C/c3ccccc3C)n2)cc1 [Compound 51, (E)-6-(4-methoxyphenyl)-N′-(2-methylbenzylidene)pyrazine-2-carbohydrazide]
> 10 µM | 0.398 µM | COc1cc(/C=N/NC(=O)c2cncc(-c3ccc(OC)nc3)n2)cc(OC)c1 [Compound 184, (E)-N′-(3,5-dimethoxybenzylidene)-6-(6-methoxypyridin-3-yl)pyrazine-2-carbohydrazide]
0.0556 µM | 0.102 µM | COc1cc(/C=N/NC(=O)c2cncc(-c3ccc(OC4CCCC4)cc3)n2)cc(OC)c1 [Compound 30, 6-[4-(cyclopentyloxy)phenyl]-N′-[(E)-(3,5-dimethoxyphenyl)methylidene]pyrazine-2-carbohydrazide]
4.79 µM | > 1 µM | COc1cc(/C=N/NC(=O)c2cncc(-c3ccc(OC)cc3OC(C)C)n2)cc(OC)c1 [Compound 156, (E)-N′-(3,5-dimethoxybenzylidene)-6-(2-isopropxy-4-methoxyphenyl)pyrazine-2-carbohydrazide]
> 0.3 µM | > 0.3 µM | CCOc1ccc(-c2cnc(-c3ccccc3)c(C(=O)N/N=C/c3cc(OC)cc(OC)c3)n2)cc1 [Compound 147, (E)-N′-(3,5-dimethoxybenzylidene)-6-(4-ethoxyphenyl)-3-phenylpyrazine-2-carbohydrazide]
> 0.3 µM | > 0.3 µM | CCOc1ccc(-c2cnc(Oc3ccccc3)c(C(=O)N/N=C/c3cc(OC)cc(OC)c3)n2)cc1 [Compound 146, (E)-N′-(3,5-dimethoxybenzylidene)-6-(4-ethoxyphenyl)-3-phenoxypyrazine-2-carbohydrazide]
0.855 µM | 0.152 µM | CCOc1ccc(-c2cncc(C(=O)N/N=C/c3cc(OC)ccc3OC)n2)cc1 [Compound 3, (E)-N′-(2,5-dimethoxybenzylidene)-6-(4-ethoxyphenyl)pyrazine-2-carbohydrazide]
> 10 µM | > 1 µM | COc1cc(/C=N/NC(=O)c2cncc(-c3ccc(C(=O)NS(C)(=O)=O)cc3)n2)cc(OC)c1 [Compound 190, (E)-4-(6-(2-(3,5-dimethoxybenzylidene)hydrazine-1-carbonyl)pyrazin-2-yl)-N-(methylsulfonyl)benzamide]
0.256 µM | 0.231 µM | CC(C)Oc1ccc(-c2cncc(C(=O)N/N=C/C3CCCCCC3)n2)cc1 [Compound 183, (E)-N′-(cycloheptylmethylene)-6-(4-isopropoxyphenyl)pyrazine-2-carbohyazide]

IC50 [1] | IC50 [2] | SMILES
> 10 µM | > 1 µM | CCc1nccnc1C(=O)N/N=C/c1cc(OC)cc(OC)c1 [Compound 132, (E)-N′-(3,5-dimethoxybenzylidene)-3-ethylpyrazine-2-carbohydrazide]
7.22 µM | 0.952 µM | CCOc1ccc(-c2cncc(C(=O)N/N=C/c3ccccc3S(C)(=O)=O)n2)cc1 [Compound 192]
> 10 µM | 0.573 µM | CCOc1ccc(-c2cncc(C(=O)N/N=C/C3CCC(F)(F)CC3)n2)cc1 [Compound 172, (E)-N′-((4,4-diflurocyclohexyl)methylene)-6-(4-ethoxyphenyl)pyrazine-2-carbohydrazide]
5.12 µM | > 1 µM | COc1cc(/C=N/NC(=O)c2cncc(-c3ccc(OC)cc3Cl)n2)cc(OC)c1 [Compound 122]
> 10 µM | 0.132 µM | COc1cc(/C=N/NC(=O)c2cncc(-c3ccc(OC(F)(F)F)cc3)n2)cc(OC)c1 [Compound 31, N′-[(E)-(3,5-dimethoxyphenyl)methylidene]-6-[4-(trifluoromethoxy)phenyl]pyrazine-2-carbohydrazide]
0.138 µM | 0.0884 µM | COc1cc(/C=N/NC(=O)c2cncc(-c3ccc(OCC4CC4)cc3)n2)cc(OC)c1 [Compound 152, (E)-6-(4-(cyclopropylmethoxy)phenyl)-N′-(3,5-dimethoxybenzylidene)pyrazine-2-carbohydrazide]
2.19 µM | 0.476 µM | COc1ccc(-c2cncc(C(=O)N/N=C/c3cccc(Br)c3)n2)cc1 [Compound 55, (E)-N′-(3-bromobenzylidene)-6-(4-methoxyphenyl)pyrazine-2-carbohydraizde]
0.499 µM | 0.117 µM | COc1cc(/C=N/NC(=O)c2cncc(-c3ccc(OC)cc3F)n2)cc(OC)c1 [Compound 121, (E)-N′-(3,5-dimethoxybenzylidene)-6-(2-fluoro-4-methoxyphenyl)pyrazine-2-carbohydrazide]
0.135 µM | 0.103 µM | CCCCOc1ccc(-c2cncc(C(=O)N/N=C/c3cc(OC)cc(OC)c3)n2)cc1 [Compound 83]
> 10 µM | > 1 µM | COc1ccc(-c2cncc(C(=O)N/N=C/c3ccc(C(C)(C)C)cc3)n2)cc1 [Compound 66, (E)-N′-(4-(tert-butyl)benzylidene)-6-(4-methoxyphenyl)pyrazine-2-carbohydrazide]
3.59 µM | > 1 µM | COc1ccc(-c2cncc(C(=O)N/N=C/c3ccccc3C(C)(C)C)n2)cc1 [Compound 52, (E)-N′-(2-(tert-butyl)benzylidene)-6-(4-methoxyphenyl)pyrazine-2-carbohydrazide]
0.228 µM | 0.0133 µM | CCOc1ccc(-c2cncc(C(=O)N/N=C/c3cc(OC)ccc3F)n2)cc1 [Compound 20, (E)-6-(4-ethoxyphenyl)-N′-(2-fluoro-5-methoxybenzylidene)pyrazine-2-carbohydrazide]
> 10 µM | > 1 µM | COc1cc(/C=N/NC(=O)c2cncc(-c3ccccc3Cl)n2)cc(OC)c1 [Compound 95, (E)-6-(2-chlorophenyl)-N′-(3,5-dimethoxybenzylidene)pyrazine-2-carbohydrazide]
2.91 µM | 0.311 µM | COc1ccc(-c2cncc(C(=O)N/N=C/c3cccc(Cl)c3)n2)cc1 [Compound 54, (E)-N′-(3-chlorobenzylidene)-6-(4-methoxyphenyl)pyrazine-2-carbohydrazide]
1.05 µM | 0.097 µM | COc1ccc(-c2cncc(C(=O)N/N=C/c3cccc(C)c3)n2)cc1 [Compound 58, (E)-6-(4-methoxyphenyl)-N′-(3-methylbenzylidene)pyrazine-2-carbohydrazide]

SMILES | IC50 [1] | IC50 [2]
CCCCOc1ccc(-c2cncc(C(=O)N/N=C/c3cc(OC)cc(OC)c3)n2)c(Cl)c1 [Compound 158, (E)-6-(4-butoxy-2-chlorophenyl)-N′-(3,5-dimethoxybenzylidene)pyrazine-2-carbohydrazide] | 0.245 µM | 0.282 µM
